Assays:
A375 (melanoma) = experiment: In vitro cytotoxic activity (MTT) assay, A375; type: cell-based; conditions: Homo sapiens, A-375; A375 (melanoma) cells, exposed for 96 hours; read-out: IC50, concentration of compound eliciting a 50% inhibition of cell proliferation
Protocol: (§1) Compounds 1-12 were screened for their in vitro cytotoxic activity utilizing a 3-(4,5-dimethyl-thiazol-2-yl)-2,5-diphenyltetrazolium bromide (MTT) assay against selected cancer human cell lines consisting of PC3 (prostate), HCT116 (colon), A375 (melanoma), H1299 (lung), MIAPaCa-2 (pancreas), HL60 (leukemia), MCF7 (breast), MDA-MB-231 (breast) (T. Mosmann, J. Immunol. Meth., 1983, 65, 55-63). The cells were cultured at 37° C. in RMPI1640 medium supplemented with 10% fetal bovine serum, 50 IU/mL penicillin, and 50 μg/mL streptomycin in a 5% CO2 incubator. All cells were sub-cultured 3 times/week by trypsinisation. Viable cells were seeded and allowed to adhere for 12 h before a test drug was added in 96-well plates at an initial density of 1.0×10^5 cells/mL. Tumour cell lines were separately exposed to various concentrations of the tested compounds followed by incubation at a temperature of 37° C. during 96 h inside a medium of fresh RMPI 1640. Cells were subsequently incubated at 37° C. using MTT at 0.5 mg/mL during 4 h. After removal of supernatant, formazan crystals were dissolved in isopropanol and the optical density was measured at 570 nm. CX-4945 was used as a positive control.

H1299 (lung) = experiment: In vitro cytotoxic activity (MTT) assay, H1299; type: cell-based; conditions: Homo sapiens, NCI-H1299; H1299 (lung) cells, exposed for 96 hours; read-out: IC50, concentration of compound eliciting a 50% inhibition of cell proliferation
Protocol: as §1

MIAPaCa-2 (pancreas) = experiment: In vitro cytotoxic activity (MTT) assay, MIAPaCa-2; type: cell-based; conditions: Homo sapiens, MIA PaCa-2; MIAPaCa-2 (pancreas) cells, exposed for 96 hours; read-out: IC50, concentration of compound eliciting a 50% inhibition of cell proliferation
Protocol: as §1

MDA-MB-231 (breast) = experiment: In vitro cytotoxic activity (MTT) assay, MDA-MB-231; type: cell-based; conditions: Homo sapiens; MDA-MB-231 (breast) cells, exposed for 96 hours; read-out: IC50, concentration of compound eliciting a 50% inhibition of cell proliferation
Protocol: as §1

MCF7 (breast) = experiment: In vitro cytotoxic activity (MTT) assay, MCF7; type: cell-based; conditions: Homo sapiens; MCF7 (breast) cells, exposed for 96 hours; read-out: IC50, concentration of compound eliciting a 50% inhibition of cell proliferation
Protocol: as §1

PC3 (prostate) = experiment: In vitro cytotoxic activity (MTT) assay, PC3; type: cell-based; conditions: Homo sapiens, Prostate cell; PC3 (prostate) cells, exposed for 96 hours; read-out: IC50, concentration of compound eliciting a 50% inhibition of cell proliferation
Protocol: as §1

HCT116 (colon) = experiment: In vitro cytotoxic activity (MTT) assay, HCT116; type: cell-based; conditions: Homo sapiens, HCT-116; HCT116 (colon) cells, exposed for 96 hours; read-out: IC50, concentration of compound eliciting a 50% inhibition of cell proliferation
Protocol: as §1

[1] = target: T1, recombinant human CK2 (RRββ-holoenzyme) (Homo sapiens, UniProt P68400); experiment: CK2 Kinase Assay (radiometric, [γ-33P] ATP); type: biochemical; conditions: final ATP concentration 15 μM, 10 min at 30° C.; read-out: protein kinase CK2 IC50
T1 construct: purchased Millipore
Protocol: CK2 Kinase Assay was conducted using the protocol as described in Pierre F. et al; J. Med. Chem. 2011, 54, 635-654. The tested compounds in aqueous solution were added at a volume of 10 μL to a reaction mixture comprising 10 μL of assay dilution buffer (ADB; 20 mM MOPS, pH 7.2, 25 mM β-glycerol phosphate, 5 mM EGTA, 1 mM sodium orthovanadate, and 1 mM dithiothreitol), 10 μL of substrate peptide (RRRDDDSDDD, dissolved in ADB at a concentration of 1 mM), 10 μL of recombinant human CK2 (RRββ-holoenzyme, 25 ng dissolved in ADB; Millipore). Reactions were initiated by the addition of 10 μL of ATP solution (90% 75 mMMgCl2, 75 μM ATP (final ATP concentration: 15 μM) dissolved in ADB; 10% [γ-33P] ATP (stock 1 mCi/100 μL; 3000 Ci/mmol (Perkin-Elmer) and maintained for 10 min at 30° C. The reactions were quenched with 100 μL of 0.75% phosphoric acid and then transferred to and filtered through a phosphor cellulose filter plate (Millipore). After washing each well five times with 0.75% phosphoric acid, the plate was dried under vacuum for 5 min and, following the addition of 15 μL of scintillation fluid to each well, the residual radioactivity was measured using a Wallac […] counter. The IC50 values were derived from eight concentrations of test inhibitors.

HL60 (leukemia) = experiment: In vitro cytotoxic activity (MTT) assay, HL60; type: cell-based; conditions: Homo sapiens, HL-60; HL60 (leukemia) cells, exposed for 96 hours; read-out: IC50, concentration of compound eliciting a 50% inhibition of cell proliferation
Protocol: as §1

T1 sequence (P68400 whole entry): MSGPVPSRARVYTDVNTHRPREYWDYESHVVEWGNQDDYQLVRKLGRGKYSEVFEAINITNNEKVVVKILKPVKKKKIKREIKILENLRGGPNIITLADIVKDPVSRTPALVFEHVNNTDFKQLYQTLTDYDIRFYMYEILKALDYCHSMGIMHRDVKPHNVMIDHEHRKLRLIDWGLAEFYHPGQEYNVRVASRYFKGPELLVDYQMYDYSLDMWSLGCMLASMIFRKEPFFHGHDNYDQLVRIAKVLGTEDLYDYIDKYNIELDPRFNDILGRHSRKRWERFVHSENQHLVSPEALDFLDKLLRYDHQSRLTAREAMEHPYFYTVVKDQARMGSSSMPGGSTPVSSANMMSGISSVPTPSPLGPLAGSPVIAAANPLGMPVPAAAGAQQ
T1 sequence (P67870 whole entry partner): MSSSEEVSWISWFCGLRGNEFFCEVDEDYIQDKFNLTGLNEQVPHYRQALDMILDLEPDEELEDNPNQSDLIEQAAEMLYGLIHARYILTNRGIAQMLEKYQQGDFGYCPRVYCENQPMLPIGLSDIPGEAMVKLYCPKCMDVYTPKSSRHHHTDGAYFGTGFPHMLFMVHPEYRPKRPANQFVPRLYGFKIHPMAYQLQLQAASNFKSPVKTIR

Compound: Clc1cccc(Nc2c3cnccc3nc3c2[nH]c2ccncc23)c1 [Compound (1), N-(3-chlorophenyl)-10H-pyrido[3′,4′:4,5]pyrrolo[3,2-b][1,6]naphthyridin-11-amine]
- IC50 (A375 (melanoma)): 2800 nM
- IC50 (H1299 (lung)): 3200 nM
- IC50 (MIAPaCa-2 (pancreas)): 900 nM
- IC50 (MDA-MB-231 (breast)): 5400 nM
- IC50 (MCF7 (breast)): 7600 nM
- IC50 (PC3 (prostate)): 1700 nM
- IC50 (HCT116 (colon)): 1100 nM
- IC50 [1]: 64 nM
- IC50 (HL60 (leukemia)): 2400 nM
